Like-named read-outs stand apart in the source and are kept apart here.
What was measured:
[1] = tested on: serum cholesterol, ovariectomized rats; assay: Serum cholesterol in ovariectomized rats (4 days daily oral dosing); format: in vivo, rat (female Sprague Dawley); settings: Rattus norvegicus, 96 h, read-out: Serum Cholesterol (% decrease vs. OVX); for inhibition in vivo at 0.1 mg/kg: 0.1 mg/kg PO; for inhibition in vivo at 1 mg/kg: 1.0 mg/kg PO; for inhibition in vivo at 10 mg/kg: 10.0 mg/kg PO
Description: (§1) In the examples illustrating the methods, a postmenopausal model was used in which effects of different treatments upon circulating lipids were determined.
(§2) Seventy-five day old female Sprague Dawley rats (weight range of 200 to 225 g) were obtained from Charles River Laboratories (Portage, Mich.). The animals were either bilaterally ovariectomized (OVX) or exposed to a Sham surgical procedure at Charles River Laboratories, and then shipped after one week. Upon arrival, they were housed in metal hanging cages in groups of 3 or 4 per cage and had ad libitum access to food (calcium content approximately 0.5%) and water for one week. Room temperature was maintained at 22.2°±1.70° C. with a minimum relative humidity of 40%. The photoperiod in the room was 12 hours light and 12 hours dark.
(§3) After a one week acclimation period (therefore, two weeks post-OVX) daily dosing with test compound was initiated. […] Animals were dosed daily for 4 days. Following the dosing regimen, animals were weighed and anesthetized with a ketamine: Xylazine (2:1, V:V) mixture and a blood sample was collected by cardiac puncture. The animals were then sacrificed by asphyxiation with CO2, the uterus was removed through a midline incision, and a wet uterine weight was determined.
Blood samples were allowed to clot at room temperature for 2 hours, and serum was obtained following centrifugation for 10 minutes at 3000 rpm. Serum cholesterol was determined using a Boehringer Mannheim Diagnostics high performance cholesterol assay. Briefly the cholesterol was oxidized to cholest-4-en-3-one and hydrogen peroxide. The hydrogen peroxide was then reacted with phenol and 4-aminophenazone in the presence of peroxidase to produce a p-quinone imine dye, which was read spectrophotemetrically at 500 nm. Cholesterol concentration was then calculated against a standard curve. The entire assay was automated using a Biomek Automated Workstation. […]
(§4) The data presented in Table 1 below reflects the response of 5 to 6 rats per treatment.

[2] = tested on: MCF-7 breast adenocarcinoma cells; assay: MCF-7 Proliferation Assay (tritiated thymidine); format: cell-based
Description: MCF-7 breast adenocarcinoma cells (ATCC HTB 22) were maintained in MEM (minimal essential medium, phenol red-free, Sigma, St. Louis, Mo.) supplimented with 10% fetal bovine serum (FBS) (V/V), L-glutamine (2 mM), sodium pyruvate (1 mM), HEPES {(N-[2-hydroxyethyl]piperazine-N'-[2-ethanesulfonic acid]10 mM}, non-essential amino acids and bovine insulin (1 ug/mL) (maintenance medium). Ten days prior to assay, MCF-7 cells were switched to maintenance medium supplemented with 10% dextran coated charcoal stripped fetal bovine serum (DCC-FBS) assay medium) in place of 10% FBS to deplete internal stores of steroids. MCF-7 cells were removed from maintenance flasks using cell dissociation medium (Ca++/Mg++ free HBSS (phenol red-free) supplemented with 10 mM HEPES and 2 mM EDTA). Cells were washed twice with assay medium and adjusted to 80,000 cells/mL. Approximately […] (8,000 cells) were added to flat-bottom microculture wells (Costar 3596) and incubated at 37° C. in a 5% CO2 humidified incubator for 48 hours to allow for cell adherence and equilibration after transfer. Serial dilutions of drugs or DMSO as a diluent control were prepared in assay medium and […] to triplicate microcultures followed by […] assay medium for a final volume of […]. After an additional 48 hours at 37° C. in a 5% CO2 humidified incubator, microcultures were pulsed with tritiated thymidine (1 uCi/well) for 4 hours. Cultures were terminated by freezing at -70° C. for 24 hours followed by thawing and harvesting of microcultures using a Skatron Semiautomatic Cell Harvester. Samples were counted by liquid scintillation using a Wallac BetaPlace b counter. Results in Table 4 below show the IC50 for certain compounds of the instant invention. […]

[3] = tested on: uterus, ovariectomized rats; assay: Uterine weight in ovariectomized rats (4 days daily oral dosing); format: in vivo, rat (female Sprague Dawley); settings: Rattus norvegicus, 96 h, read-out: Uterine weight (% increase vs. OVX); for change in vivo at 0.1 mg/kg: 0.1 mg/kg PO; for change in vivo at 1 mg/kg: 1.0 mg/kg PO; for change in vivo at 10 mg/kg: 10.0 mg/kg PO
Description: as §1, §2, §3
This uterine response to estrogen is well recognized in the art.
as §4

[4] = tested on: Uterine Eosinophil Peroxidase (EPO); assay: Uterine Eosinophil Peroxidase (EPO) Assay in ovariectomized rats; format: in vivo, rat (female Sprague Dawley); parameters: Uterine EPO (Vmax): unit not given here
Excerpt: as §2, §3
Uteri were kept at 4° C. until time of enzymatic analysis. The uteri were then homogenized in 50 volumes of 50 mM Tris buffer (pH-8.0) containing 0.005% Triton X-100. Upon addition of 0.01% hydrogen peroxide and 10 mM O-phenylenediamine (final concentrations) in Tris buffer, increase in absorbance was monitored for one minute at 450 nm. The presence of eosonophils in the uterus is an indication of estrogenic activity of a compound. The maximal velocity of a 15 second interval was determined over the initial, linear portion of the reaction curve.
As is expressed in the data below, estrogenicity also was assessed by evaluating the adverse response of eosinophil infiltration into the uterus.
as §4

[5] = Homo sapiens, MCF7, 48 hours, read-out: IC50

SMILES | inhibition in vivo at 0.1 mg/kg [1] [%] | inhibition in vivo at 1 mg/kg [1] [%] | inhibition in vivo at 10 mg/kg [1] [%] | IC50 [2, 5] [nM] | change in vivo at 0.1 mg/kg [3] [%] | change in vivo at 1 mg/kg [3] [%] | change in vivo at 10 mg/kg [3] [%] | Uterine EPO (Vmax) ([4]; 0.1 mg/kg PO) | Uterine EPO (Vmax) ([4]; 1.0 mg/kg PO) | Uterine EPO (Vmax) ([4]; 10.0 mg/kg PO) | inhibition in vivo at 5 mg/kg ([1]; 5.0 mg/kg PO) [%] | change in vivo at 5 mg/kg ([3]; 5.0 mg/kg PO) [%] | Uterine EPO (Vmax) ([4]; 5.0 mg/kg PO) | eosinophil infiltration into the uterus (in words) ([4]; stromal layer of ovariectomized rats) | IC50 ([2]; 48 hours)
COc1ccc2c(C(=O)c3ccc(OCCN4CCCCC4)cc3)c(-c3cccc(F)c3)sc2c1 [Example 21, [2-(3-Fluorophenyl)-6-methoxybenzo[b]thien-3-yl] [4-[2-(1-piperidinyl)ethoxy]phenyl]methanone] | 1.4 | -12 | 60.5 | 500 | 14.9 | 4.1 | 25.3 | 4.5 | 4.8 | 7.5 |  |  |  |  | 
O=C(c1ccc(OCCN2CCCCC2)cc1)c1c(-c2ccccc2O)sc2cc(O)ccc12 [Example 10, [2-(2-Hydroxyphenyl)-6-hydroxybenzo[b]thien-3-yl][4-[2-(1-piperidinyl)ethoxy]phenyl]methanone] | 7.8 | 19.5 | 33.2 | 10 | -18.3 | -21 | 10.6 | 2.8 | 1.7 | 3.7 |  |  |  |  | 
COc1ccc(-c2sc3cc(OC)ccc3c2C(=O)c2ccc(OCCN3CCCCC3)cc2)c(OC)c1 [Example 17, [2-(2,4-Dimethoxyphenyl)-6-methoxybenzo[b]thien-3-yl] [4-[2-(1-piperidinyl)ethoxy]phenyl]methanone] | 51.4 | 68.5 | 67.2 | 300 | 40.1 | 66.1 | 53.7 | 20.4 | 102.0 | 20.1 |  |  |  |  | 
O=C(c1ccc(OCCN2CCCCC2)cc1)c1c(-c2ccc(C(F)(F)F)cc2)sc2cc(O)ccc12 [Example 20, [2-(4-Trifluoromethylphenyl)-6-hydroxybenzo[b]thien-3-yl][4-[2-(1-piperidinyl)ethoxy]phenyl]methanone] | 45.5 | 47.9 |  | 1000 | -2 | 7 |  | 1.8 | 7 |  | 71.5 | 37.4 | 16.4 |  | 
Cc1cc(O)ccc1-c1sc2cc(O)ccc2c1C(=O)c1ccc(OCCN2CCCCC2)cc1 [Example 16, [2-(2-Methyl-4-hydroxyphenyl)-6-hydroxybenzo[b]thien-3-yl][4-[2-(1-piperidinyl)ethoxy]phenyl]methanone] | 39.2 | 62.6 | 68.5 | 2 | 54.5 | 53.7 | 62.7 | 8.1 | 8.4 | 8.1 |  |  |  |  | 
Cc1cc(-c2sc3cc(O)ccc3c2C(=O)c2ccc(OCCN3CCCCC3)cc2)ccc1O [Example 7, [2-(3-Methyl-4-hydroxyphenyl)-6-hydroxybenzo[b]thien-3-yl][4-[2-(1-piperidinyl)ethoxy]phenyl]methanone] | 53.7 | 77.6 | 49.7 | 1 | 7.6 | 15.6 | 24.6 | 4.9 | 2.5 | 2.8 |  |  |  |  | 
C[C@]12CC[C@@H]3c4ccc(O)cc4CC[C@H]3[C@@H]1CC[C@@H]2O [estradiol, reference compound] |  |  |  |  |  |  |  |  |  |  |  |  |  | substantial, expected increase in eosinophil infiltration | 
Cc1ccccc1-c1sc2cc(O)ccc2c1C(=O)c1ccc(OCCN2CCCCC2)cc1 [Example 23, [2-(2-Methylphenyl)-6-hydroxybenzo[b]thien-3-yl] [4-[2-(1-piperidinyl)ethoxy]phenyl]methanone] | 31.7 | 38.6 | 29.3 | 0.7 | 8.5 | 12 | 10.9 | 12.0 | 8.4 | 8.1 |  |  |  |  | 
COc1ccc2c(C(=O)c3ccc(OCCN4CCCCC4)cc3)c(-c3ccc(C(F)(F)F)cc3)sc2c1 [Example 19, [2-(4-Trifluoromethylphenyl)-6-methoxybenzo[b]thien-3-yl][4-[2-(1-piperidinyl)ethoxy]phenyl]methanone] | 22.3 | 3.1 | 20.6 |  | 10.3 | 15.6 | 16.6 | 6.8 | 4.3 | 4 |  |  |  |  | Not active
O=C(Oc1cccc(-c2sc3cc(OC(=O)c4ccccc4)ccc3c2C(=O)c2ccc(OCCN3CCCCC3)cc2)c1)c1ccccc1 [Example 13, [2-(3-Benzoyloxyphenyl)-6-benzoyloxybenzo[b]thien-3-yl][4-[2-(1-piperidinyl)ethoxy]phenyl]methanone] | 25.3 | 45.7 | 61.4 |  | -18.6 | 34.7 | 27.6 | 3.0 | 6.0 | 8.4 |  |  |  |  | 
COc1ccc2c(C(=O)c3ccc(OCCN4CCCCC4)cc3)c(-c3ccc(OC)c(OC)c3)sc2c1 [Example 8, [2-(3,4-Dimethoxyphenyl)-6-methoxybenzo[b]thien-3-yl][4-[2-(1-piperidinyl)ethoxy]phenyl]methanone] | 24.8 | 57.8 | 60.8 |  | -8.3 | 23.4 | 24.1 | 1.3 | 4.4 | 11.2 |  |  |  |  | 

Reference: patent US5998442A, “Benzo [B] thiophene compounds, and compositions for treating bone loss, and hyperlipidemia” (Eli Lilly and Company, priority 1997, dated 1999)
